Earlier results, collected in patent US9050307B2, “Method for the preparation of a levothyroxine solution” (EMP Pharma GmbH, priority 2011, dated 2015).

N[C@@H](Cc1cc(I)c(Oc2cc(I)c(O)c(I)c2)c(I)c1)C(=O)[O-].[Na+] [Levothyroxine sodium, Sodium (2S)-2-amino-3-[4-(4-hydroxy-3,5-diiodophenoxy)-3,5-diiodophenyl]propanoate]
Solubility in ethanol (96 percent) (ethanol (96 percent)): slightly soluble
Solubility in water (water): very slightly soluble
